Experimental findings from US10584346B2, “HSF-like transcription factor, TBF1, is a major molecular switch for growth-to-defense transition in plants” (Duke University, priority 2011, dated 2020) are described below.

Experiment [1] relates to TBF1 promoter. Description: Induction of the TBF1 promoter by chemical inducers.
The test system of experiment [2] is Arabidopsis seedlings. Kind of experiment: Seedling growth (fresh weight) on MS media supplemented with SA, elf18 or flg22. Format: in vivo. Conditions: WT plants; 10 days on MS with increasing concentrations of SA or 10 μM elf18. As to the method: (Panel 11A) Fresh weight of ten seedlings grown for 10 days on plates with MS growth media (Ctrl), MS supplemented with increasing concentrations of SA or 10 μM elf18. Error bars represent the standard deviation of three replicates. This experiment was repeated three times with similar results. Statistical analysis was performed using the Student's t-test, *, p-value<0.05, **, p-value<0.01, ***, p-value≤0.001.
Fresh weight of ten seedlings grown for 10 days on plates with regular MS growth media (−f1g22) or MS supplemented with 10 μM f1g22 (+f1g22). Error bars represent standard deviation of three replicates. The experiment was repeated three times with similar results.

The subject of experiment [3] is Psm ES4326. Kind of experiment: Bacterial infection assay: SA- and MAMP-induced resistance to Psm ES4326 in Arabidopsis plants. Conditions: 1 mM SA spray 24 hrs prior to infection, Psm ES4326 OD600nm=0.001. Format: in vivo, Pseudomonas syringae pv. maculicola. The protocol: Infection of Arabidopsis plants with Pseudomonas syringae pv. maculicola (Psm) ES4326 was performed as described previously. To test for enhanced disease susceptibility, a bacterial suspension at OD600nm=0.0001 was infiltrated into 2-3 leaves per plant and 12 plants/genotype. Bacterial growth was quantified 3 days later. To test for SAR and MAMP-induced resistance, plants were pre-treated with relevant compounds (1 mM SA, spray 24 hrs prior to infection; 10 μM elf18, infiltration 2 hrs prior to infection; 10 μM flg22, infiltration 2 hrs prior to infection), and subsequently inoculated with Psm ES4326 (OD600nm=0.001) into 2-3 leaves per plant and 12 plants/genotype/treatment. Sampling was performed 3 days post inoculation.

The test system of experiment [4] is Arabidopsis seedlings. Description: Tunicamycin sensitivity assay (seedling recovery/survival). The format is in vivo. Conditions: two-day treatment with tunicamycin at 300 μg/L, measured 10 days later. The protocol: (Panel 11B) Seedling recovery after a two-day treatment with the UPR inducer tunicamycin at 300 μg/L was measured 10 days later by counting the percentage of surviving seedlings (left), and by phenotype observations (right). Error bars represent standard deviation of three replicates. This experiment was repeated five times with similar results. Statistical analysis was performed using the Student's t-test, ***, p-value≤0.001.
This assay was performed as described in earlier studies.

For `O=[N+]([O-])[O-].[Ag+]` [AgNO3], in experiment [1], the “induction of the TBF1 promoter” value was “shown to induce the TBF1 promoter”.

With `[Cl-].[Na+]` [NaCl], the “induction of the TBF1 promoter” value in experiment [1] is listed as “shown to induce the TBF1 promoter”.

As for `O=C(O)c1ccccc1O` [SA, salicylic acid], the “growth of seedlings (fresh weight)” value in experiment [2] is given as “significantly inhibited”. Further, in experiment [1], the “induction of the TBF1 promoter” value is “shown to induce the TBF1 promoter”. Further, the “reduction in Psm ES4326 growth in response to induction by SA” value in experiment [3] (WT plants, 3 days post inoculation) is approximately 2 log; in experiment [3] (tbf1 mutant) it was “less than 1 log”.

As for `CC1=CC(=O)CC(C)(C)[C@@]1(O)/C=C/C(C)=C\C(=O)O` [abscisic acid], the “induction of the TBF1 promoter” value in experiment [1] is reported as “shown to induce the TBF1 promoter”.

Consider `C[C@@H]1C[C@@H]([C@H](O)CC2CC(=O)NC(=O)C2)C(=O)[C@@H](C)C1` [cycloheximide], for which the “induction of the TBF1 promoter” value in experiment [1] is recorded as “shown to induce the TBF1 promoter”.

Take `C=C` [ethylene]: the “induction of the TBF1 promoter” value in experiment [1] is recorded as “shown to induce the TBF1 promoter”.

In the case of `CC/C=C\C[C@H]1C(=O)CC[C@@H]1CC(=O)O` [jasmonic acid], in experiment [1], the “induction of the TBF1 promoter” value is on record as “shown to induce the TBF1 promoter”.

As to `OC[C@@H](O)[C@@H](O)[C@H](O)[C@H](O)CO` [mannitol], the “induction of the TBF1 promoter” value in experiment [1] is “shown to induce the TBF1 promoter”.

On to `CC/C=C\CC1C(=O)CCC1CC(=O)OC` (centres unmarked) [methyl ester of jasmonic acid], for which, in experiment [1], the “induction of the TBF1 promoter” value is “shown to induce the TBF1 promoter”.

For the molecule tunicamycin, the seedling survival rate in experiment [4] (WT) was approximately 60%; in experiment [4] (tbf1 mutant) it was approximately 20%.
